Our source for the IC50 and NA restoration values is ChEMBL document CHEMBL1133809, “Synthesis of N-propargylphenelzine and analogues as neuroprotective agents” (Bioorg Med Chem Lett, 2001).

pIC50: −log10 of the molar value.

Test [1] has as its target T1, Amine oxidase [flavin-containing] B (Rattus norvegicus, UniProt P19643).
T1 sequence (P19643 whole entry): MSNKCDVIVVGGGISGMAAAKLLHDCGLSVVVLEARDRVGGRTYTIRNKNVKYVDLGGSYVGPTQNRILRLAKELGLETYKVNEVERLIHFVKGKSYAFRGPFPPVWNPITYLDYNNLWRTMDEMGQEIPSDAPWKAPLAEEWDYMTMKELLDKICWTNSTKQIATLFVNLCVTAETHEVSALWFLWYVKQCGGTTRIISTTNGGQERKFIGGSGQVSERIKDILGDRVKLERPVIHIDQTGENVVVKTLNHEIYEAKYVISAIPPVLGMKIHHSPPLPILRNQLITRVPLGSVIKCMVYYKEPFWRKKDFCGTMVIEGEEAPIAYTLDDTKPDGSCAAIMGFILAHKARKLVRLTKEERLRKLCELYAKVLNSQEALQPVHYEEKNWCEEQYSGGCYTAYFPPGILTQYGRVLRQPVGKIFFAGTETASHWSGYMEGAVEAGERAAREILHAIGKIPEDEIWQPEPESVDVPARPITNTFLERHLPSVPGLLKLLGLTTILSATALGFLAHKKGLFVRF
Kind of test: In vitro ability to inhibit Monoamine oxidase B activity in rat whole brain in vitro.

The target of test [2] is T2, Amine oxidase [flavin-containing] A (Rattus norvegicus, UniProt P21396).
T2 sequence (P21396 whole entry): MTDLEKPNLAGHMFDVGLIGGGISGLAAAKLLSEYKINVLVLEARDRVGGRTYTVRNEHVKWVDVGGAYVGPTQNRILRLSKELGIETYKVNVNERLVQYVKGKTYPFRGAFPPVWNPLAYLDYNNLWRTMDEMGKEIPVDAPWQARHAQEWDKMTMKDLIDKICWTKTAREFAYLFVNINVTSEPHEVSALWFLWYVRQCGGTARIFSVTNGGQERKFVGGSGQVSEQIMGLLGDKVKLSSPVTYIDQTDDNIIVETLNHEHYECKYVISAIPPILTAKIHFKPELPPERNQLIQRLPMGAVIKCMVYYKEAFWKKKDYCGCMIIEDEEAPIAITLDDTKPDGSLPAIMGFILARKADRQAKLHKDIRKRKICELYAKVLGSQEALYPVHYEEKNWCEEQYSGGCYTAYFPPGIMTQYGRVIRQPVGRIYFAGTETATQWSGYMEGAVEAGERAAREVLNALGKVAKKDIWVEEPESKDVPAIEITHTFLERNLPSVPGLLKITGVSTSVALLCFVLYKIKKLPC
Kind of test: In vitro ability to inhibit Monoamine oxidase A activity in rat whole brain in vitro.

Test [3] is filed under the species Mus musculus. As to the kind of experiment: Compound tested for the prevention of DSP- 4- induced depletion of noradrenaline (NA) in mouse hippocampus ex vivo. Type of test: functional.

As to `C#CCNNC/C=C/c1ccccc1`, the negative logarithm of the IC50 (pIC50) is 4.99 in test [1] and 5.10 in test [2]. Besides, the NA restoration in test [3] was -7.21%.
The matching figures for `C#CCN(N)c1ccccc1`: 6.00, 4.95 and -49.82%.
For the molecule `C#CCN(N)C/C=C/c1ccccc1`, the results for the pIC50 in test [1] and in test [2] were 5.45 and 5.93, respectively. Besides, in test [3], the NA restoration is -39.2%.
The corresponding values for `C#CCNNCc1ccccc1` are 5.55, 6.44 and 31.74%.
The corresponding values for `C#CCN(N)CCc1ccccc1` are 7.12, 5.69 and 56.38%.
The matching figures for `C#CCNNCCc1ccccc1`: 5.50, 5.73 and 76.83%.
As to `C#CCN(N)Cc1ccccc1`, the results for the pIC50 in test [1] and in test [2] were 6.92 and 5.81, respectively. For the same molecule, in test [3], the NA restoration is reported as 33.58%.
The matching figures for `NNCCc1ccccc1` [PHENELZINE]: 7.12, 7.52 and 43.48%.
With `C#CCN(C)[C@H](C)Cc1ccccc1` [SELEGILINE], the NA restoration in test [3] is 79.71%.

The term pIC50 denotes the negative decadic logarithm of the IC50, by convention in mol/L. A high value points to a small IC50.
